Non-standard residues stand in square brackets, D forms with d. Residues, ends and D or L forms follow the SMILES beside them. pT = C[C@@H](OP(=O)(O)O)[C@H](N)C(=O)O; Nle = CCCC[C@H](N)C(=O)O
What was measured:
HeLa cells = details: Bub1 RNAi 48 h, nocodazole 2 h, reversine 0.5 μM, 25–35% without reversine
Bub1(1–553)/Bub3 = target: T1, Bub1(1–553)/Bub3 (Homo sapiens, UniProt O43683+O43684); test: MicroScale Thermophoresis (MST) affinity of MELT peptides for Bub1(1–553)/Bub3; assay type: binding; details: for Binding of Bub1(1–553)/Bub3 to phosphorylated MELT peptide, in words: 50 mM NaCl
T1 construct: 15 μg 3 × FLAG–Bub1(1–553)-expressing plasmid; made in house; host or cells: HEK293 cells (transient co-transfection)
T1 sequence (O43683 1-553 limits assumed): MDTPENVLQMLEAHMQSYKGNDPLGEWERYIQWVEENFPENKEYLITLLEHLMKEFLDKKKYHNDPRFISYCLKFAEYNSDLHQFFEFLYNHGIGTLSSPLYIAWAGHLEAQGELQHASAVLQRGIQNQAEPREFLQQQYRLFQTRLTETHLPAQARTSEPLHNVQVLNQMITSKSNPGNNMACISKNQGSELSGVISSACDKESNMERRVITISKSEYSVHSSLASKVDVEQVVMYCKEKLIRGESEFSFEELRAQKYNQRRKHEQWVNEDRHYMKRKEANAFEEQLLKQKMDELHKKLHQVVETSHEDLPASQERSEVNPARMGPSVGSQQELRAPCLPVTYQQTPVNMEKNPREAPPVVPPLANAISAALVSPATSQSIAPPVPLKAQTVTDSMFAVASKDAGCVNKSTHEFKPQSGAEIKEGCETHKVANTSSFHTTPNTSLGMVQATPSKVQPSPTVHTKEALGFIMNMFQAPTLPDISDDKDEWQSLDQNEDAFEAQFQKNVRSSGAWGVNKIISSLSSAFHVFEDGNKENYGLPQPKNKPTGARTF
T1 sequence (O43684 whole entry): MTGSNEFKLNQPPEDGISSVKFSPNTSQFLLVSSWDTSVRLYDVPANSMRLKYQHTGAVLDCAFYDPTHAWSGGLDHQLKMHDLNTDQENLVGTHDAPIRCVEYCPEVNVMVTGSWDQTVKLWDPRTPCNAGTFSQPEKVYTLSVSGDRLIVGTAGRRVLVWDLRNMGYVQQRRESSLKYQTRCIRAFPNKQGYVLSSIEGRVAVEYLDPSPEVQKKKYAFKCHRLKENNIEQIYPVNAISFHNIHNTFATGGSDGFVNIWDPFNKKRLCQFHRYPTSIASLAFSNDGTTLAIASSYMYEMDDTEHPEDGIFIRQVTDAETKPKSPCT
Excerpt: We next wanted to quantitatively compare the ability of BubR1/Bub3 and Bub1/Bub3 to bind MELTp repeats. For this, we purified a FLAG–Bub1(1–553)/Bub3 complex in parallel with FLAG–BubR1/Bub3 (we could not obtain sufficient yields of the full-length Bub1/Bub3 complex, but have recently shown that Bub1 1–553 fully supports SAC signalling[29]). To determine the affinity of the complexes to MELTp repeats, we used MicroScale Thermophoresis (MST). Purified BubR1/Bub3 and Bub1(1–553)/Bub3 complexes were fluorescently labelled with maleimide chemistry for these measurements and tested for their ability to bind phosphorylated MELT12, MELT16 and MELT18 peptides (Fig. 2e–g; Supplementary Fig. 2). The binding of BubR1/Bub3 to MELT12 was strongly dependent on phosphorylation and the measured affinity was sensitive to the salt concentration in the buffer as expected for an interaction depending on electrostatic interactions with the phosphorylated threonine[26] (Fig. 2e–g; Supplementary Fig. 2C). We conducted the affinity measurements at 50 mM NaCl as this produced the best quality data for the Bub1(1–553)/Bub3 complex.
Ten 15-cm dishes were each seeded with 6 × 10^6 HEK293 cells and the next day each transfected with 15 μg 3 × FLAG–BubR1 or 15 μg 3 × FLAG–Bub1(1–553)-expressing plasmid and 15 μg untagged Bub3-expressing plasmid using lipofectamine 2000 (Invitrogen). Forty-eight hours after transfection, the cells were collected by trypsination and cells washed in cold PBS with 1 mM phenylmethyl sulphonyl fluoride. The cells were resuspended in 5 ml buffer A (350 mM NaCl, 50 mM Tris·HCl (pH 8.0), 0.05% NP-40 and protease inhibitor cocktail (Roche)) and lysed using a nitrogen cavitation bomb. Lysate was clarified by centrifugation and then incubated with 300 μl FLAG-affinity resin (Sigma-Aldrich) for 90 min at 4 °C. The FLAG resin was washed with 20 ml buffer A and proteins eluted with three times 300 μl buffer A containing […] 3 × FLAG peptide (Sigma). The eluates were pooled and concentrated to 500 μl and loaded on a Superdex 200 10/300 GL column equilibrated with buffer B (150 mM NaCl, 25 mM HEPES·KOH (pH 7.8), 5% glycerol and 0.5 mM TCEP) and peak fractions eluting at ∼500 kDa pooled and concentrated using a vivaspin-4 concentration device. Proteins were stored at −80 °C.
MST experiments were performed on a NanoTemper Monolith NT.115 instrument with blue/red channels. […] The fluorescently labelled protein complexes were mixed with equivalent volumes (10 μl) of a twofold serial dilution of the different peptides starting at concentrations between 10 and 20 times the calculated KD. The fraction of bound protein was derived from the averaged (1 s averaged) normalized fluorescence signals at t=8 s of the labelled complexes at different ligand concentrations. […]

BubR1/Bub3 = target: T2, BubR1/Bub3 (Homo sapiens, UniProt O43684+O60566); test: MicroScale Thermophoresis (MST) affinity of MELT peptides for BubR1/Bub3; assay type: binding; details: for Binding of BubR1/Bub3 to phosphorylated MELT peptide, in words: 50 mM NaCl
T2 construct: made in house; host or cells: HEK293 cells (transient co-transfection)
T2 sequence (O60566 whole entry): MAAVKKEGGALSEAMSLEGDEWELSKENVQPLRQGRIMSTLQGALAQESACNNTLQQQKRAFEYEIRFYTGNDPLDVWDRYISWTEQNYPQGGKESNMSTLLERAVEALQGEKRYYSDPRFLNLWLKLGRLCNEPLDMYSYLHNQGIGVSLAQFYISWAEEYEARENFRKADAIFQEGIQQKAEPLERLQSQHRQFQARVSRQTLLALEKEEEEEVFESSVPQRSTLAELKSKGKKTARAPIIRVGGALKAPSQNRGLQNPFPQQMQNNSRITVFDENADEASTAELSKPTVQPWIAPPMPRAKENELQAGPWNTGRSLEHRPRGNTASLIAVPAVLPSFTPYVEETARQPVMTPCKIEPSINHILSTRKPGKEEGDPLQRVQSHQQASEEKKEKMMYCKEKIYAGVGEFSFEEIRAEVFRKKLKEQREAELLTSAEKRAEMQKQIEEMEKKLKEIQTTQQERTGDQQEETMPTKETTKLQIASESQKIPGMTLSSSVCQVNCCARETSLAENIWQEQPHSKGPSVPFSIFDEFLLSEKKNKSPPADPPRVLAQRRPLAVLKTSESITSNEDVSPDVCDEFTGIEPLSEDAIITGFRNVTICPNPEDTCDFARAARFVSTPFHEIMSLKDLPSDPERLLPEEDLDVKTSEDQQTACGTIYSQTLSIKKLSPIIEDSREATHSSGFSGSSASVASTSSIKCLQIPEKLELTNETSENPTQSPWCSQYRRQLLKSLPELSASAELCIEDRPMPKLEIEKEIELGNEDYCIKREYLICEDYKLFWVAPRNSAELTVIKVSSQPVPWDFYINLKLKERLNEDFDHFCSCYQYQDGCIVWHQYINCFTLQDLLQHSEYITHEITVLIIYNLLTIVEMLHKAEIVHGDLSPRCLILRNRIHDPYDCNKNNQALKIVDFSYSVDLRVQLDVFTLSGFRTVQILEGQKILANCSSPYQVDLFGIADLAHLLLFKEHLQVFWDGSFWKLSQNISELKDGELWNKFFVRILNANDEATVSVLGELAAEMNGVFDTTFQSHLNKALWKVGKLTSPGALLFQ
T2 sequence (O43684 whole entry): as the sequence (O43684 whole entry) above

For `c1nc2nc(Nc3ccc(N4CCOCC4)cc3)nc(NC3CCCCC3)c2[nH]1` [reversine], the “BubR1 kinetochore levels remaining (normalized to CREST)” value (HeLa cells) was ~10%.
For `CCCC[C@H](NC(=O)[C@H](CC(=O)O)NC(=O)[C@H](CC(N)=O)NC(=O)[C@H](CCCCN)NC(=O)[C@H](CC(=O)O)NC(=O)[C@H](CC(=O)O)NC(=O)[C@H](CCC(=O)O)NC(=O)COCCOCCNC(=O)[C@H](CS)NC(=O)COCCOCCNC(=O)CCCC[C@@H]1SC[C@@H]2NC(=O)N[C@@H]21)C(=O)N[C@@H](CC(=O)O)C(=O)N[C@H](C(=O)N[C@H](C(=O)N[C@@H](CCCCN)C(=O)N[C@@H](CO)C(=O)N[C@@H](Cc1ccc(O)cc1)C(=O)N[C@H](C(=O)N[C@H](C(=O)N[C@@H](CCC(=O)O)C(=O)N[C@H](C(=O)N[C@@H](CC(N)=O)C(N)=O)[C@@H](C)CC)[C@@H](C)CC)[C@@H](C)O)[C@@H](C)OP(=O)(O)O)[C@@H](C)CC` [MELT12p], the “Binding of Bub1(1–553)/Bub3 to phosphorylated MELT peptide, in words” value (shortened to “Binding of Bub1(1–553)/Bub3”) (Bub1(1–553)/Bub3) was “bound” and the “Binding of BubR1/Bub3 to phosphorylated MELT peptide, in words” value (shortened to “Binding of BubR1/Bub3”) (BubR1/Bub3) was “bound”.
`CCCC[C@H](NC(=O)[C@H](CC(=O)O)NC(=O)[C@H](CC(N)=O)NC(=O)[C@H](CCCCN)NC(=O)[C@H](Cc1c[nH]cn1)NC(=O)[C@H](CC(N)=O)NC(=O)[C@@H](N)CCC(=O)O)C(=O)N[C@@H](CC(=O)O)C(=O)N[C@H](C(=O)N[C@H](C(=O)N[C@@H](CCC(N)=O)C(=O)N[C@@H](CO)C(=O)N[C@@H](CS)C(=O)N[C@@H](CCCC)C(=O)N[C@H](C(=O)N[C@@H](CCC(=O)O)C(=O)N[C@H](C(=O)N[C@@H](CC(=O)O)C(=O)N[C@@H](Cc1ccc(O)cc1)C(N)=O)[C@@H](C)CC)C(C)C)[C@@H](C)OP(=O)(O)O)[C@@H](C)CC` [MELT16p] (H-ENHKND[Nle]DI[pT]QSC[Nle]VEIDY-NH2; N-terminus assumed) was tested, and the “Binding of Bub1(1–553)/Bub3” value (Bub1(1–553)/Bub3) was “bound” and the “Binding of BubR1/Bub3” value (BubR1/Bub3) was “bound”.
In the case of “TDNYSDLEV-Tp-DSHTVFID-amide [MELT18p, single-phosphorylated MELT18 peptide from KNL1]”, the “Binding of Bub1(1–553)/Bub3” value (Bub1(1–553)/Bub3) is reported as “no binding was detected”, the “Bub1(1–553)/Bub3 KD” value (Bub1(1–553)/Bub3; 50 mM Tris pH 7.8, 50 mM NaCl, 0.5 mM TCEP, 0.05% Tween 20, labelled Bub1(1–553)/Bub3 12.5 nM (4 nM for double-phosphorylated MELT12), three independent repeats) is reported as “No binding” and the “Binding of BubR1/Bub3” value (BubR1/Bub3) is reported as “no binding was detected”. For the same molecule, the “BubR1/Bub3 KD” value (BubR1/Bub3; 50 mM Tris pH 7.8, 50 mM NaCl, 0.5 mM TCEP, 0.05% Tween 20, labelled BubR1/Bub3 25 nM (4 nM for double-phosphorylated MELT12), three independent repeats) was “No binding”.
